Results as given in article PMC12235045, “Structural insights into allosteric inhibition of HRI kinase by heme binding via HDX-MS” (Biochemical Journal, 2025).
Read-outs that look alike come from different tables or passages of the source.

Experiments:
[1] = target: T1, Heme-regulated inhibitor (HRI) (Homo sapiens, UniProt Q9BQI3); assay: ADP-GLO kinase assay with eIF2α substrate; supported by nanoDSF (+[…] °C at […]) and Phos-tag gels; assay type: biochemical
T1 construct: gene EIF2AK1; N-terminally His-tagged human HRI, dephosphorylated, from E. coli
T1 sequence (Q9BQI3 whole entry): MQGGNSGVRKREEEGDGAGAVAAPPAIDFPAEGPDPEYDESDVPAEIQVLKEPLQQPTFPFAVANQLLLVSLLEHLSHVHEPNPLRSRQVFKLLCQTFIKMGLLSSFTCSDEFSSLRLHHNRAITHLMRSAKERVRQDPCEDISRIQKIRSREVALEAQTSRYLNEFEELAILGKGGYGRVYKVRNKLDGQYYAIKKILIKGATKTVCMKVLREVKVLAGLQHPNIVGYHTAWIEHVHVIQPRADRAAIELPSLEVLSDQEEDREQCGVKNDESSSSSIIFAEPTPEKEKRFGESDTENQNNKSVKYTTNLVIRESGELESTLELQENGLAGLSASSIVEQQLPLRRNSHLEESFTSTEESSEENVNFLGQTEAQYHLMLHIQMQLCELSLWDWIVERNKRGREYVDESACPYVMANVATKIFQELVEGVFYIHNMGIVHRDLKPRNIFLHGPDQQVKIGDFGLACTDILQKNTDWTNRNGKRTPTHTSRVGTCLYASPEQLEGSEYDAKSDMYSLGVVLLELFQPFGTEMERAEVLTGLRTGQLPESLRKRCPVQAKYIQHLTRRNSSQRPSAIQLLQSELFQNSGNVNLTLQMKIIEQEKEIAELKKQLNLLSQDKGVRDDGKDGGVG

[2] = target: T1, Heme-regulated inhibitor (HRI); assay: as above; assay type: biochemical; remark: listed apart in the source

Compound | IC50 [1] [nM] | IC50 [2] [nM]
COc1ncc(Cl)cc1S(=O)(=O)Nc1ccc(F)c(C#Cc2cnc(N)nc2)c1F [GCN2iB] | 620 | –
COC(=O)N[C@@H](C)CNc1nccc(-c2cn(C(C)C)nc2-c2cc(Cl)cc(NS(C)(=O)=O)c2F)n1 [encorafenib] | – | 1070
